Results on 16 molecules are retold here after patent US7183415B2, “Quinoline compound” (Takeda Pharmaceutical Company Limited, priority 2001, dated 2007).

In one data set the test system is SD (Sprague Dawley) rats. Put plainly: Evaluation of antidepressive action by forced swim test. The data set is classed as in vivo, rat. As to conditions: 3 mg/kg body weight, oral, 30 minutes before test, five minutes measured, n=10; control group 30.86±8.71. As for the experimental part:
By performing a forced swim test using SD (Sprague Dawley) rats (seven-week-old, male, body weight 233.3–266.9 g, purchased from Japan Clea), the antidepressive action of the compound of the present invention was evaluated.
First, a suspension of the compound of Example 19 in 0.5% methyl cellulose was orally administered to SD rats (n=10) (compound dose: 3 mg/kg body weight). Thirty minutes later, the rats were placed in a pipe (diameter 21 cm, height 50 cm) made of Plexiglass (trade name, made by Rohm & Haas, U.S.A.) containing tap water (water temperature 25±2° C., 30 cm deep). Immobility time of the rats for five minutes thereafter was measured using a digital video camera.
In addition, 0.5% methyl cellulose suspension without the compound was orally administered to SD rats (n=10), and the rats were subjected the forced swim test in the same manner as above and taken as a control group.
`Cc1c(NC(=O)c2ccc(-c3ccc(F)cc3)cc2)ccc2cc(CN3CCCC3)cnc12` [Example 19, 4′-fluoro-N-[8-methyl-3-(1-pyrrolidinylmethyl)-7-quinolinyl][1,1′-biphenyl]-4-carboxamide]: the “immobility time (seconds, mean±standard deviation)” value is 15.93 ± 5.62 s.

The next data set deals with T1, SLC-1 expression CHO cell membrane fraction (MCH receptor) (UniProt Q99705).
T1 construct: full-length coding regions in pAKKO-111H
Briefly: Antagonistic activity of test compound using GTP γ S binding assay. The data set is classed as biochemical, human/rat. As to conditions: inhibition of MCH-stimulated [35S]-GTPγS binding, 25° C., 1 hr, read-out: Inhibitory activity (IC50: nM). Here is the method: Using human SLC-1 expression CHO cell clone 57 obtained in Reference Example 1-10 and rat SLC-1 expression CHO cell clone 44 obtained in Reference Example 1-4, membrane fractions were prepared by the following method. In phosphate buffered saline (pH 7.4) supplemented with 5 mM EDTA (ethylenediamine tetraacetic acid) were suspended human and rat SLC-1 expression CHO cells (1×10^8) and centrifuged. Homogenate buffer (10 ml, 10 mM NaHCO3, 5 mM EDTA, pH 7.5) was added to the pellets of the cells and, using Polytron Homogeniser, the mixture was homogenated. The supernatant obtained after centrifugation at 400×g for 15 min was further centrifuged at 100,000×g for 1 hr to give precipitate of the membrane fraction. […]
The antagonistic activity of the test compound was determined as follows. […] Liquid scintillator (50 ml) was added to the glass filter and the residual radioactivity was determined by a liquid scintillation counter. Binding inhibition (%)=(radioactivity upon addition of compound and MCH−radioactivity upon addition of DMSO solution)/(radioactivity upon addition of MCH−radioactivity upon addition of DMSO solution)×100
From the binding inhibition (%), IC50 of the compound was calculated.
For orientation: Binding of GTPγS marks nucleotide exchange on a G protein.
With `COc1ccc(-c2ccc(C(=O)Nc3ccc4cc(CN5CCCC5)cnc4c3)cn2)cc1` [Example 8, 6-(4-methoxyphenyl)-N-[3-(1-pyrrolidinylmethyl)-7-quinolinyl]nicotinamide], the IC50 worked out at 6 nM.

System in the next data set: not given
Assay: not given
Settings: not given
Take `Cc1c(NC(=O)c2ccc(-c3ccc(F)cc3)cc2)ccc2cc(CN3CCCC3)cnc12` [Example 19, 4′-fluoro-N-[8-methyl-3-(1-pyrrolidinylmethyl)-7-quinolinyl][1,1′-biphenyl]-4-carboxamide]: the melting point is 220 to 222 °C. Still for that read-out and setting: the figure for `COc1ccc(-c2ccc(C(=O)Nc3ccc4cc(CN5CCCC5)cnc4c3)cn2)cc1` [Example 8, 6-(4-methoxyphenyl)-N-[3-(1-pyrrolidinylmethyl)-7-quinolinyl]nicotinamide] is 246 to 248 °C; for `O=C(Nc1ccc2cc(CN3CCCCCC3)cnc2c1)c1ccc(-c2ccc(Cl)cc2)cc1` [Example 27, N-[3-(1-azepanylmethyl)-7-quinolinyl]-4′-chloro[1,1′-biphenyl]-4-carboxamide] it is 204 °C; for `CSc1ccc(-c2ccc(C(=O)Nc3cc4ncc(CN5CCCC5)cc4cc3C)cc2)cc1` [Example 219, N-[6-methyl-3-(1-pyrrolidinylmethyl)-7-quinolinyl]-4′-(methylthio)-[1,1′-biphenyl]-4-carboxamide] it is 198 °C. As to `Cc1c(NC(=O)c2ccc(-c3ccc(F)cc3)cc2)ccc2cc(CN3CCC(CCCC(N)=O)CC3)cnc12` [Example 206, N-(3-{[4-(4-amino-4-oxobutyl)-1-piperidinyl]methyl}-8-methyl-7-quinolinyl)-4′-fluoro[1,1′-biphenyl]-4-carboxamide], the melting point is 232 to 234 °C.

`COc1ccc(-c2ccc(C(=O)Nc3cc4ncc(CN5CCCCCC5)cc4cc3C)c(F)c2)cc1` [Example 245, N-[3-(1-azepanylmethyl)-6-methyl-7-quinolinyl]-3-fluoro-4′-methoxy[1,1′-biphenyl]-4-carboxamide] registered a melting point of 168 °C. Same read-out and setting: for `CCNC(=O)CC1CCN(Cc2cnc3c(C)c(NC(=O)c4ccc(-c5ccc(F)cc5)cc4)ccc3c2)CC1` [Example 203, N-[3-({4-[2-(ethylamino)-2-oxoethyl]-1-piperidinyl}methyl)-8-methyl-7-quinolinyl]-4′-fluoro[1,1′-biphenyl]-4-carboxamide] the value was 243 to 245 °C; for `Cc1c(NC(=O)c2ccc(-c3ccc(F)cc3)cc2)ccc2cc(CN3[C@H](C)CCC[C@@H]3C)cnc12` [Example 193, N-(3-{[(2R,6S)-2,6-dimethylpiperidinyl]methyl}-8-methyl-7-quinolinyl)-4′-fluoro[1,1′-biphenyl]-4-carboxamide], 167 to 168 °C.

As for `O=C(Nc1cc2ncc(CN3CCCC3)cc2cc1N1CCCC1)c1ccc(-c2ccc(F)cc2)cc1` [Example 64, 4′-fluoro-N-[6-(1-pyrrolidinyl)-3-(1-pyrrolidinylmethyl)-7-quinolinyl][1,1′-biphenyl]-4-carboxamide], the melting point fell in the range of 182 to 184 °C. For the molecule `Cc1c(NC(=O)c2ccc(-c3ccccc3)cc2F)ccc2cc(CN3CCCCCC3)cnc12` (hydrate or solvate) [Example 183, N-[3-(1-azepanylmethyl)-8-methyl-7-quinolinyl]-3-fluoro[1,1′-biphenyl]-4-carboxamide], the melting point was in the range of 151 to 153 °C.

As to `Cc1cc2cc(CN3CCCCCC3)cnc2cc1NC(=O)c1ccc(-c2ccc(F)cc2)cc1F` [Example 244, N-[3-(1-azepanylmethyl)-6-methyl-7-quinolinyl]-3,4′-difluoro[1,1′-biphenyl]-4-carboxamide], the melting point worked out at 170 °C.

Regarding `O=C(Nc1ccc2cc(CN3CCCCCC3)cnc2c1)N1CCC(c2ccc(Cl)cc2)CC1` [Example 34, N-[3-(1-azepanylmethyl)-7-quinolinyl]-4-(4-chlorophenyl)-1-piperidine carboxamide], the melting point is 247 °C (dec.). The same measure, in the same setting: for `O=C(Nc1ccc2cc(CN3CCCC3)cnc2c1)c1ccc(-c2ccc(Cl)cc2)cc1F` [Example 85, 4′-chloro-3-fluoro-N-[3-(1-pyrrolidinylmethyl)-7-quinolinyl][1,1′-biphenyl]-4-carboxamide] the value was 232 °C; for `Cc1c(NC(=O)c2ccc(-c3ccccc3)cc2F)ccc2cc(CN3CCCC3)cnc12` [Example 149, 3-fluoro-N-[8-methyl-3-(1-pyrrolidinylmethyl)-7-quinolinyl][1,1′-biphenyl]-4-carboxamide], 166 to 168 °C. The same measure, in the same setting: the figure for `O=C(Nc1cc2ncc(CN3CCCC3)cc2cc1F)c1ccc(-c2ccc(F)cc2)cc1F` [Example 60, 3,4′-difluoro-N-[6-fluoro-3-(1-pyrrolidinylmethyl)-7-quinolinyl][1,1′-biphenyl]-4-carboxamide] is 200 to 202 °C; for `Cc1c(NC(=O)c2ccc(-c3ccccc3)c(F)c2)ccc2cc(CN3CCCCC3)cnc12` (hydrate or solvate) [Example 175, 2-fluoro-N-[8-methyl-3-(1-piperidinylmethyl)-7-quinolinyl][1,1′-biphenyl]-4-carboxamide] it is 138 to 139 °C.

As usually defined, the IC50 is the concentration needed to halve the response being measured. Usually melting point stands for the temperature of the solid-liquid transition.
